Measured values taken from patent US7897602B2, “Indolinone compounds as kinase inhibitors” (Development Center for Biotechnology, priority 2009, dated 2011).

Tests used:
Assay type in all cases: biochemical
c-Met kinase = target: T1, c-Met kinase (Homo sapiens, UniProt P08581); assay: c-Met kinase assay (33P incorporation into Poly(Glu-Tyr)); conditions: 500 nM test compound
T1 construct: recombinant N-terminal 6×His-tagged c-Met kinase domain construct expressed from baculovirus; 6xHis (N); made in house
How it was run: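 Recombinant N-terminal 6×His-tagged c-Met kinase domain (baculovirus-expressed, 5 ng) acted on Poly(Glu-Tyr) 4:1 with 100 μM ATP plus [33P]-γ-ATP in MOPS pH 7.0 buffer, 30 min at 30° C. Compound was at 500 nM. Filter-retained radioactivity was compared with the DMSO control to give percent inhibition.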

VEGFR2 kinase = target: T2, VEGFR2 kinase (Homo sapiens, UniProt P35968); assay: VEGFR2 kinase assay (33P incorporation into Poly(Glu-Tyr)); conditions: 500 nM test compound; read-out: Inhibition at 500 nM (%) VEGFr-2
T2 construct: recombinant N-terminal 6×His-tagged VEGFR2 kinase domain construct expressed by baculovirus; 6xHis (N); made in house
How it was run: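 Recombinant baculovirus-expressed N-terminal His6-tagged VEGFR2 kinase domain (6.25 ng) phosphorylated poly(Glu-Tyr) 4:1 with 100 μM ATP plus [33P]-γ-ATP in MOPS pH 7.0, 30 °C, 30 min. Test compound was at 500 nM (4% DMSO). Filter-retained radioactivity relative to DMSO control gave % inhibition.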

Flt3 kinase = target: T3, Flt3 kinase (Homo sapiens, UniProt P36888); assay: Flt3 kinase assay (33P incorporation into Poly(Glu-Tyr)); conditions: 100 nM test compound; read-out: Inhibition at 100 nM (%) Flt-3
T3 construct: recombinant N-terminal 6×His-tagged Flt3 kinase domain construct expressed from baculovirus; 6xHis (N); made in house
T3 sequence (P36888 610-943 limits assumed): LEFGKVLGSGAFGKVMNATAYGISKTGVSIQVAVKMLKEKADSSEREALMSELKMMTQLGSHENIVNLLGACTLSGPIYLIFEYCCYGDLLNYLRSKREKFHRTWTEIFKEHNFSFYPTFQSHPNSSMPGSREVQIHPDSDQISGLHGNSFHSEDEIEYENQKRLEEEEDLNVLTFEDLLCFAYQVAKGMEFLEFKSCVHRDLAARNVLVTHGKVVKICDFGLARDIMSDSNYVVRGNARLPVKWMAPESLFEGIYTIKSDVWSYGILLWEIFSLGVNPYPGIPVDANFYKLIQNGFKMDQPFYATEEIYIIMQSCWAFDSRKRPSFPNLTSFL
How it was run: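 Baculovirus-expressed His-tagged Flt3 kinase domain (5 ng) with Poly(Glu-Tyr) 4:1 substrate, 100 μM ATP plus [33P]-γ-ATP, in MOPS pH 7.0 buffer, 30 min at 30 °C. Compound tested at a single 100 nM concentration; filter-bound radioactivity counted and percent inhibition calculated relative to DMSO control.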

T2 sequence (P35968 834-1162 limits assumed): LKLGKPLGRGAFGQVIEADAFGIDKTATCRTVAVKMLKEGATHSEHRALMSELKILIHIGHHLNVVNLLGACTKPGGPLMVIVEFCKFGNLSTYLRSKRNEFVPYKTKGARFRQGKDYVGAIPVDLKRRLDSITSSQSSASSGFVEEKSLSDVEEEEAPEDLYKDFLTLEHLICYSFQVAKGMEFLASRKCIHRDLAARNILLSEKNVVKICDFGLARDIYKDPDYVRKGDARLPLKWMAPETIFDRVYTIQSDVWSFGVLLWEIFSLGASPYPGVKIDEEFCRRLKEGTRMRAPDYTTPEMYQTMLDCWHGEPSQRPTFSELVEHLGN
T1 sequence (P08581 1078-1345 limits assumed): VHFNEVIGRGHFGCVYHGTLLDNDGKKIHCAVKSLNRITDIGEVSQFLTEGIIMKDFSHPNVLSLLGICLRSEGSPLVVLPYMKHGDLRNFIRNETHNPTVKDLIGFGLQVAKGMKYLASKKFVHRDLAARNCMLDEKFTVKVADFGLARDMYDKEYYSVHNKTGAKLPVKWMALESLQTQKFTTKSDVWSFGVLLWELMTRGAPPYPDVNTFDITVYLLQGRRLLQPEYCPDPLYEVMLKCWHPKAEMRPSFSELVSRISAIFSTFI

Row | SMILES | inhibition at 0.5 µM (c-Met kinase) | inhibition at 0.5 µM (VEGFR2 kinase) | inhibition at 0.1 µM (Flt3 kinase)
1 | O=C(O)CCc1c(/C=C2\C(=O)Nc3cc(Br)ccc32)[nH]c2c1C(=O)CCC2 [DCB-70133, (Z)-3-(2-((6-bromo-2-oxoindolin-3-ylidene)methyl)-4-oxo-4,5,6,7-tetrahydro-1H-indol-3-yl)propanoic acid] | 3.3% | 54.2% | 6.1%
2 | CCOC(=O)CCc1c(/C=C2\C(=O)Nc3ccc(NC(=O)Nc4ccccc4)cc32)[nH]c2c1C(=O)CCC2 [DCB-70134, (Z)-ethyl 3-(4-oxo-2-((2-oxo-5-(3-phenylureido)indolin-3-ylidene)methyl)-4,5,6,7-tetrahydro-1H-indol-3-yl)propanoate] | -0.3% | 20.7% | 40.9%
3 | CCOC(=O)CCc1c(/C=C2\C(=O)Nc3ccc(NC(=O)Nc4ccc(Br)cc4)cc32)[nH]c2c1C(=O)CCC2 [DCB-70135, (Z)-ethyl 3-(2-((5-(3-(4-bromophenyl)ureido)-2-oxoindolin-3-ylidene)methyl)-4-oxo-4,5,6,7-tetrahydro-1H-indol-3-yl)propanoate] | -3.7% | 44.6% | 20.3%
4 | CCOC(=O)CCc1c(/C=C2\C(=O)Nc3ccc(NC(=O)Nc4ccc(F)cc4)cc32)[nH]c2c1C(=O)CCC2 [DCB-70136, (Z)-ethyl 3-(2-((5-(3-(4-fluorophenyl)ureido)-2-oxoindolin-3-ylidene)methyl)-4-oxo-4,5,6,7-tetrahydro-1H-indol-3-yl)propanoate] | -7.7% | 31.7% | 39.3%
5 | CCOC(=O)CCc1c(/C=C2\C(=O)Nc3ccc(NC(=O)Nc4ccc(Cl)c(C(F)(F)F)c4)cc32)[nH]c2c1C(=O)CCC2 [DCB-70137, (Z)-ethyl 3-(2-((5-(3-(4-chloro-3-(trifluoromethyl)phenyl)ureido)-2-oxoindolin-3-ylidene)methyl)-4-oxo-4,5,6,7-tetrahydro-1H-indol-3-yl)propanoate] | 11.5% | 82.9% | 33.8%
6 | CCOC(=O)CCc1c(/C=C2\C(=O)Nc3ccc(NC(=O)c4ccc([N+](=O)[O-])cc4)cc32)[nH]c2c1C(=O)CCC2 [DCB-70140, (Z)-ethyl 3-(2-((5-(4-nitrobenzamido)-2-oxoindolin-3-ylidene)methyl)-4-oxo-4,5,6,7-tetrahydro-1H-indol-3-yl)propanoate] | 9.3% | 27.6% | 5.5%
7 | CCOC(=O)CCc1c(/C=C2\C(=O)Nc3ccc(NS(=O)(=O)c4ccc(F)cc4)cc32)[nH]c2c1C(=O)CCC2 [DCB-70144, (Z)-ethyl 3-(2-((5-(4-fluorophenylsulfonamido)-2-oxoindolin-3-ylidene)methyl)-4-oxo-4,5,6,7-tetrahydro-1H-indol-3-yl)propanoate] | 14.4% | 40.8% | 38.7%

Further lines, results first:

Row | inhibition at 0.5 µM (c-Met kinase) | inhibition at 0.5 µM (VEGFR2 kinase) | inhibition at 0.1 µM (Flt3 kinase) | SMILES
8 | 13.7% | 15.8% | 3.7% | O=C(O)CCc1c(/C=C2\C(=O)Nc3ccc(NCc4ccccc4)cc32)[nH]c2c1C(=O)CCC2 [DCB-70132, (Z)-3-(2-((5-(benzylamino)-2-oxoindolin-3-ylidene)methyl)-4-oxo-4,5,6,7-tetrahydro-1H-indol-3-yl)propanoic acid]
9 | 12.5% | 66.6% | 24% | O=C(O)CCc1c(/C=C2\C(=O)Nc3ccc(NS(=O)(=O)c4ccc(F)cc4)cc32)[nH]c2c1C(=O)CCC2 [DCB-70145, (Z)-3-(2-((5-(4-fluorophenylsulfonamido)-2-oxoindolin-3-ylidene)methyl)-4-oxo-4,5,6,7-tetrahydro-1H-indol-3-yl)propanoic acid]
10 | 20.9% | 59.7% | 59.9% | CCOC(=O)CCc1c(/C=C2\C(=O)Nc3ccc(NS(=O)(=O)c4ccccc4)cc32)[nH]c2c1C(=O)CCCC2 [DCB-70146, (Z)-ethyl 3-(4-oxo-2-((2-oxo-5-(phenylsulfonamido)indolin-3-ylidene)methyl)-1,4,5,6,7,8-hexahydrocyclohepta[b]pyrrol-3-yl)propanoate]
11 | 0.2% | 71.3% | 43.8% | O=C(O)CCc1c(/C=C2\C(=O)Nc3ccc(NS(=O)(=O)c4ccccc4)cc32)[nH]c2c1C(=O)CCCC2 [DCB-70147, (Z)-3-(4-oxo-2-((2-oxo-5-(phenylsulfonamido)indolin-3-ylidene)methyl)-1,4,5,6,7,8-hexahydrocyclohepta[b]pyrrol-3-yl)propanoic acid]
